# Patent US9499493B2, “2,4-pyrimidinediamine compounds and their uses” (Rigel Pharmaceuticals, Inc., priority 2002, dated 2016)
# Experiments:
# [1] = system: cultured human mast cells (CHMC); experiment: CHMC low cell density IgE activation: tryptase assay; format: cell-based; conditions: anti-IgE
# Procedure, shortened: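 Low-density CHMC assay: donor-adjusted 1000-1500 cells/well, MT buffer, 1 hr 37° C preincubation; anti-IgE stimulus 30 min 37° C versus MT-only controls; supernatant tryptase by substrate, 30 min RT.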
# [2] = system: cultured human mast cells (CHMC); experiment: CHMC low cell density ionomycin activation: tryptase assay; format: cell-based
SMILES,IC50 [1] [µM],IC50 [2] [µM]
"CCOC(=O)CNc1cccc(Nc2ncc(F)c(Nc3cccc(O)c3)n2)c1 [R950215, N2-(Ethoxycarbonylmethyleneaminophenyl)-5-fluoro-N4-(3-hydroxyphenyl)-2,4-pyrimidinediamine]",0.409,> 10
"Cc1noc(COc2ccc(Nc3nc(Nc4cccc(O)c4)ncc3F)cc2)n1 [R935147, 5-Fluoro-N2-(3-hydroxyphenyl)-N4-[4-(3-methyl-1,2,4-oxadiazol-5-yl)methyleneoxyphenyl]-2,4-pyrimidinediamine]",1.4,> 10
"NCCNC(=O)c1cc2cc(Nc3ncc(F)c(Nc4ccc5oc(C(=O)NCCN)cc5c4)n3)ccc2o1 [R950168, N2,N4-Bis[2-(2-aminoethyleneamoinocarbonyl)-benzofurane-5-yl]-5-fluoro-2,4-pyrimidinediamine]",6.5,8.65
"CC1Sc2ccc(Nc3ncc(F)c(Nc4cccc(O)c4)n3)cc2NC1=O (racemic) [R909263, (+/−)-5-Fluoro-N4-(3-hydroxyphenyl]-N2-(2-methyl-1,4-benzothiazin-3-on-6-yl)pyrimidinediamine]",0.289,> 10
"COc1cc(-c2ccccc2)c(C)cc1Nc1ncc(F)c(Nc2cc(C)c(-c3ccccc3)cc2OC)n1 [R926401, N2,N4-Bis[(2-methoxy-5-methyl-4-phenyl)phenyl]-5-fluoro-2,4-pyrimidinediamine]",> 10,> 10
"CNC(=O)COc1cccc(Nc2ncc(F)c(Nc3cccc(C(=NO)c4ccccc4)c3)n2)c1 [R950374, N4-(3-Phenylcarbonyloximephenyl)-5-fluoro-N2-[3-(N-methylamino)carbonylmethyleneoxyphenyl]-2,4-pyrimidinediamine]",0.599,> 10
"O=C(CNc1cccc(Nc2ncc(F)c(Nc3ccc4c(c3)OCCO4)n2)c1)NCCNCc1ccccc1 [R950198, N2-[3-(N-Benzylamino)ethyleneaminocarbonylmethyleneaminophenyl]-N4-(3,4-ethylenedioxyphenyl)-5-fluoro-2,4-pyrimidinediamine]",0.406,> 10
"CNC(=O)COc1cccc(Nc2nc(Nc3cccc(C(C)(C)C)c3)ncc2F)c1 [R940267, N2-(3-tert-Butylphenyl)-N4-[3-(N-methylamino)carbonylmethyleneoxyphenyl]-5-fluoro-2,4-pyrimidinediamine]",3.15,> 10
"CNC(=O)COc1cccc(Nc2ncc(F)c(Nc3cccc(OC)c3)n2)c1 [R926738, 5-Fluoro-N4-(3-methoxyphenyl)-N2-[3-(N-methylamino)carbonylmethyleneoxyphenyl]-2,4-pyrimidinediamine]",0.342,> 10
"COC(=O)COc1cccc(Nc2ncc(F)c(Nc3cccc(OCC(=O)OC)c3)n2)c1 [R926255, N2,N4-Bis[(3-methoxycarbonylmethyleneoxy)phenyl]-5-fluoro-2,4-pyrimidinediamine]",1.4,4.5
"CCOC(=O)COc1ccc(Nc2nc(Nc3ccc(OCC(=O)OCC)cc3)c(NC(=O)NC(=O)OCC)c(C(=O)OCC)n2)cc1 [R926586, N2,N4-Bis(4-ethoxycarbonylmethyleneoxyphenyl)-6-ethoxycarbonyl-5-(ethoxycarbonylaminocarbonylamino)-2,4-5-pyrimidinetriamine]",2.75,> 10
"N#Cc1cnc(Nc2ccc(OCC(=O)NCC3CC3)cc2)nc1Nc1ccc(OCC(=O)NCC2CC2)cc1 [R925859, N2,N4-Bis[4-(N-cyclopropylmethylamino)carbonylmethyleneoxyphenyl]-5-cyano-2,4-pyrimidinediamine]",> 10,> 10
"O=C1COc2ccc(Nc3ncc(F)c(Nc4cccc(O)c4)n3)cc2N1 [R909268, N2-(1,4-Benzoxazin-3-on-6-yl)-5-fluoro-N4-(3-hydroxyphenyl)-2,4-pyrimidinediamine]",0.071,> 10
CC(C)(C)c1ccc(Nc2nc(Nc3cccc(OCCO)c3)ncc2F)cc1 [R926728],0.482,> 10
"CSc1nc2ccc(Nc3ncc(F)c(Nc4ccc5nc(SC)sc5c4)n3)cc2s1 [R950202, N2,N4-Bis[2-(methylthio)-1,3-benzothiaz-6-yl]-5-fluoro-2,4-pyrimidinediamine]",3.22,> 10
"Fc1cnc(Nc2ccc3cn[nH]c3c2)nc1Nc1ccc2c(c1)OCCO2 [R935190, N4-(3,4-Ethylenedioxyphenyl)-5-fluoro-N2-(indazolin-6-yl)-2,4-pyrimidinediamine]",0.156,> 10
"OB(O)c1cccc(Nc2ncc(F)c(Nc3cccc(B(O)O)c3)n2)c1 [R926836, N2,N4-Bis(3-boronylphenyl)-5-fluoro-2,4-pyrimidinediamine]",10,> 10
CC(C)(C)OC(=O)N1CCc2ccc(Nc3nc(Cl)ncc3F)cc2C1 [Compound R926911],> 10,> 10

SMILES,IC50 [1] [µM],IC50 [2] [µM]
"N#Cc1cnc(Nc2cccc(O)c2)nc1Nc1ccc(OCC(=O)NCC2CC2)cc1 [R925845, 5-Cyano-N4-[4-(N-cyclopropylmethylamino)carbonylmethyleneoxyphenyl]-N2-(3-hydroxyphenyl)-2,4-pyrimidinediamine]",2.3,> 10
"OCCCn1ncc2cc(Nc3ncc(F)c(Nc4cccc(O)c4)n3)ccc21 [R935304, 5-Fluoro-N4-(3-hydroxyphenyl)-N2-[1-(3-hydroxypropyl)indazoline-5-yl]-2,4-pyrimidinediamine]",0.188,> 10
"CNC(=O)COc1cccc(Nc2ncc(F)c(Nc3ccc4c(c3)OC(F)(F)C(F)(F)O4)n2)c1 [R926732, 5-Fluoro-N4-[3,4-(1,1,2,2-tetrafluoroethylendioxy)phenyl]-N2-[3-(N-methylamino)carbonylmethyleneoxyphenyl]-2,4-pyrimidinediamine]",0.444,> 10
"CNC(=O)COc1cccc(Nc2ncc(F)c(Nc3ccc4c(c3)N(C)C(=O)CO4)n2)c1 [R909260, 5-Fluoro-N2-[3-(N-methylaminocarbonylmethyleneoxy)phenyl]-N4-[6-(N-methyl-1,4-benzoxazin-3-onyl)]pyrimidinediamine]",1.04,> 10
"OCCOc1cccc(Nc2ncc(F)c(Nc3ccc(CO)c(CO)c3)n2)c1 [R940292, N4-[3,4-Bis(hydroxymethyl)phenyl]-5-fluoro-N2-[3-(2-hydroxyethyleneoxy)phenyl]-2,4-pyrimidinediamine]",0.683,> 10
"CNC(=O)COc1cccc(Nc2ncc(F)c(Nc3cc(OC)cc(OC)c3)n2)c1 [R926796, N4-(3,5-Dimethoxyphenyl)-5-fluoro-N2-[3-(N-methylamino)carbonylmethyleneoxyphenyl]-2,4-pyrimidinediamine]",0.914,> 10
"O=C(CNc1cccc(Nc2ncc(F)c(Nc3cccc(NCCO)c3)n2)c1)N1CCNCC1 [R950241, N4-[3-(2-Hydroxyethyleamino)phenyl]-N2-[3-(N-piperazino)-carbonylmethyleneaminophenyl]-5-fluoro-2,4-pyrimidinediamine]",3.27,> 10
"CCOC(=O)COc1ccc(Nc2nc(Nc3ccc(OCC(=O)OCC)cc3)c([N+](=O)[O-])c(C(=O)OCC)n2)cc1 [R926566, N2,N4-Bis(4-ethoxycarbonylmethylenedioxyphenyl)-6-ethoxycarbonyl-5-nitro-2,4-pyrimidinediamine]",2.73,> 10
"O=C(c1cc2cc(Nc3ncc(F)c(Nc4ccc5oc(C(=O)N6CCOCC6)cc5c4)n3)ccc2o1)N1CCOCC1 [R950172, N2,N4-Bis[2-(N-morpholinocarbonyl)benzofurane-5-yl]-5-fluoro-2,4-pyrimidinediamine]",0.983,> 10
"OCCOc1ccc(Nc2ncc(F)c(Nc3ccc4c(c3)OCCCO4)n2)cc1 [R935186, 5-Fluoro-N2-[4-(2-hydroxyethoxy)phenyl]-N4-(3,4-propylenedioxyphenyl)-2,4-pyrimidinediamine]",0.211,> 10
"CCOC(=O)CNc1nc(Nc2ccc(OCC(=O)OCC)cc2)nc(C(=O)OCC)c1[N+](=O)[O-] [R925858, 6-Ethoxycarbonyl-N4-(ethoxycarbonylmethyl)-N2-(4-ethoxycarbonylmethyleneoxyphenyl)-5-nitro-2,4-pyrimidinediamine]",8.05,7.3
"COC(=O)Cn1ncc2ccc(Nc3nc(Nc4ccc(OC(C)C)cc4)ncc3F)cc21 [R935218, 5-Fluoro-N2-(4-isopropoxyphenyl)-N4-[1-(methoxycarbonyl)methyl-indazoline-6-yl]-2,4-pyrimidinediamine]",4.71,> 10
"Cn1cc2cc(Nc3ncc(F)c(Nc4ccc5c(c4)OCCO5)n3)ccc2n1 [R935300, N4-(3,4-Ethyelenedioxyphenyl)-5-fluoro-N2-(2-methy-indazoline-5-yl)-2,4-pyrimidinediamine]",0.243,> 10
FC(F)(F)c1cnc(Nc2ccc3c(c2)OCCO3)nc1Nc1ccc2c(c1)OCCO2 [R920669],0.42,> 10
"CNC(=O)Cn1ncc2cc(Nc3ncc(F)c(Nc4ccc5c(c4)OCCO5)n3)ccc21 [R935240, N4-(3,4-Ethylenedioxyphenyl)-5-fluoro-N2-[1-(N-methylaminocarbonyl)methyl-indazoline-5-yl]-2,4-pyrimidinediamine]",0.606,> 10
"Cc1ccc(-c2ccccc2)cc1Nc1ncc(F)c(Nc2cc(-c3ccccc3)ccc2C)n1 [R926402, N2,N4-Bis[(2-methyl-5-phenyl)phenyl]-5-fluoro-2,4-pyrimidinediamine]",> 10,> 10
"Cc1nc(COc2cccc(Nc3ncc(F)c(Nc4ccc5oc(C(N)=O)cc5c4)n3)c2)no1 [R945135, N4-(2-Aminocarbonylbenzofuran-5-yl)-5-fluoro-N2-[3-(5-methyl-1,2,4-oxadiazol-3-yl)methyleneoxyphenyl]-2,4-pyrimidinediamine]",0.986,8.25
